Measured values reported in patent publication US6919464B1, “Synthetic derivatives of 21-butenyl and related spinosyns” (Dow AgroSciences LLC, priority 2001, dated 2005).

How the values were obtained:
Type in all cases: in vivo
[1] = system: Heliothis virescens; assay: Tobacco Budworm (Heliothis virescens) topical assay
Procedure: An additional measure of the relative insecticidal activities of the compounds of the invention was generated by using a 1 ug/ul acetone solution of each compound applied at 1 ug/larva of laboratory-reared Heliothis virescens larvae (mean weight of 22 mg). Each compound was applied along the dorsum of each of six larvae. Treated larvae were then held for two days at 21° C., 60% RH in six-well plastic culture plates. Larvae were each supplied with a 1 cm^3 of agar-based lepidoptera diet for sustenance during the two-day post-exposure interval. Percent mortality was determined at the end of a two-day period.

[2] = system: Heliothis virescens; assay: Tobacco Budworm (Heliothis virescens) feeding assay, cotton leaf-dip; details: second instar larvae
From the text: To compare insecticidal activities of compounds of the invention against second instar larval Heliothis virescens leaf-dip bioassay was used. Cotton cotyledon leaves were dipped in a test solution made up of the compound dissolved in acetone: Millipore water (2:1) at rates of 400 ppm to 1.56 ppm. Each cotyledon was placed individually on top of a moistened (distilled water) cotton ball in the bottom of a 1 oz plastic cup and allowed to dry (one hour). After drying, a single laboratory-reared second instar Heliothis virescens larva (mean weight 15 mg.) was placed on the treated leaf and the cup sealed with a lid, and held at 27° C. for four days. Percent mortality was determined at the end of the holding period.

[3] = system: Aphis gossypii; assay: Cotton Aphid (Aphis gossypii) assay, spray on squash seedlings; details: rate 50 ppm, relative to plants sprayed with solvent only; for mortality at 50 ppm: Aphis gossypii, 72 h
Procedure: Insecticidal activities of the compounds of the invention were also evaluated against cotton aphids (Aphis gossyppi) as follows. Summer crookneck squash seedlings at the expanded cotyledon stage are primed to a single cotyledon and infested with cotton aphids 16-24 hours before application of the test material by transfer of infested foliage cut from a stock colony. Immediately prior to spray application of the test material, the transfer foliage is removed from the squash plants. The test material is dissolved at 1 mg/ml in 90:10 acetone:alcohol, then diluted in water containing 0.05% Tween 20 (polyethylene (20) sorbitan monolaurate) to give test solution at a concentration of 50 ppm. The plants were sprayed with the test solution using an atomizing sprayer at 17 psi. Both surfaces of the cotyledons are covered until runnoff, and then allowed to dry. Activity of the compound was determined at three days after treatment. Activity was rated as a percent based on the number of aphids present in plants sprayed with solvent only.

[4] = system: Heliothis virescens; assay: Tobacco Budworm (Heliothis virescens) feeding assay, cotton leaf-dip; details: rate 600 ppm, second instar larvae, 96 h

Row | Compound | Tobacco Budworm Typical (48 h) Mortality (%) ([1]; in vivo) | mortality at 50 ppm [3] | Tobacco Budworm Typical (48 h) Mortality (%) ([1]; rate 1 µg/larva, 48 h) | Cotton Aphid mortality (72 h) Mortality (%) [3] | also measured
1 | CC/C=C/[C@H]1CCC[C@H](OC2CC[C@H](N(C)C)[C@@H](C)O2)[C@@H](C)C(=O)C2=CC3C(C=CC4C[C@@H](O[C@@H]5O[C@@H](C)[C@H](OC)[C@@H](OCC)[C@H]5OC)CC43)C2CC(=O)O1 (stereo partly drawn) [Compound A2, for-(3′-O-ethylrham)-I] | 100% | 97% |  |  | mortality at 1.56 ppm ([2]; Heliothis virescens, rate 1.56 ppm, 96 h): 100%
2 | CCCCOC1C(OC)C(C)OC(OC2CC3CCC4C5CC(=O)OC(CCCC)CCCC(OC6CCC(N(C)C)C(C)O6)C(C)C(=O)C5=CC4C3C2)C1OC (stereo not drawn) [Compound A17] |  |  | 100% | 100% | Tobacco Budworm Feeding (96 h) Mortality (%) ([2]; rate 6.25 ppm): 10%
3 | CCCCCOC1C(OC)C(C)OC(OC2CC3CCC4C5CC(=O)OC(CCCC)CCCC(OC6CCC(N(C)C)C(C)O6)C(C)C(=O)C5=CC4C3C2)C1OC (stereo not drawn) [Compound A18] |  |  | 33% | 91% | Tobacco Budworm Feeding (96 h) Mortality (%) ([2]; rate 1.56 ppm): 20%
4 | CCCC[C@H]1CCC[C@H](OC2CC[C@H](N(C)C)[C@@H](C)O2)[C@@H](C)C(=O)C2=CC3C4C[C@H](O[C@@H]5O[C@@H](C)[C@H](OC)[C@@H](OC)[C@H]5OC)CC4CCC3C2CC(=O)O1 (stereo partly drawn) [Compound B3, 5,6,22,23-tetrahydro-for-rham-I] | 100% | 53% |  |  | mortality at 6.25 ppm ([2]; Heliothis virescens, rate 6.25 ppm, 96 h): 100%
5 | CCCC[C@H]1CCC[C@H](OC2CC[C@H](N(C)C)[C@@H](C)O2)[C@@H](C)C(=O)C2=CC3C4C[C@H](O[C@@H]5O[C@@H](C)[C@H](OC)[C@@H](O)[C@H]5OC)CC4CCC3C2CC(=O)O1 (stereo partly drawn) [Compound B12, 5,6,22,23-tetrahydro-for-(3′-O-desmethylrham)-I] |  |  |  |  | mortality at 600 ppm [4]: 100%
6 | COC1C(C)OC(OC2CC3CCC4C5CC(=O)OC(CCC(C)O)CCCC(OC6CCC(N(C)C)C(C)O6)C(C)C(=O)C5=CC4C3C2)C(OC)C1OC (stereo not drawn) [Compound B17] |  |  | 17% | 11% | 
